We go through 22 compounds from ChEMBL document CHEMBL3991601, “The target landscape of clinical kinase drugs” (Science, 2017).

The target in assay [1] is T1, Tyrosine-protein kinase Mer (Homo sapiens, UniProt Q12866).
T1 sequence (Q12866 whole entry): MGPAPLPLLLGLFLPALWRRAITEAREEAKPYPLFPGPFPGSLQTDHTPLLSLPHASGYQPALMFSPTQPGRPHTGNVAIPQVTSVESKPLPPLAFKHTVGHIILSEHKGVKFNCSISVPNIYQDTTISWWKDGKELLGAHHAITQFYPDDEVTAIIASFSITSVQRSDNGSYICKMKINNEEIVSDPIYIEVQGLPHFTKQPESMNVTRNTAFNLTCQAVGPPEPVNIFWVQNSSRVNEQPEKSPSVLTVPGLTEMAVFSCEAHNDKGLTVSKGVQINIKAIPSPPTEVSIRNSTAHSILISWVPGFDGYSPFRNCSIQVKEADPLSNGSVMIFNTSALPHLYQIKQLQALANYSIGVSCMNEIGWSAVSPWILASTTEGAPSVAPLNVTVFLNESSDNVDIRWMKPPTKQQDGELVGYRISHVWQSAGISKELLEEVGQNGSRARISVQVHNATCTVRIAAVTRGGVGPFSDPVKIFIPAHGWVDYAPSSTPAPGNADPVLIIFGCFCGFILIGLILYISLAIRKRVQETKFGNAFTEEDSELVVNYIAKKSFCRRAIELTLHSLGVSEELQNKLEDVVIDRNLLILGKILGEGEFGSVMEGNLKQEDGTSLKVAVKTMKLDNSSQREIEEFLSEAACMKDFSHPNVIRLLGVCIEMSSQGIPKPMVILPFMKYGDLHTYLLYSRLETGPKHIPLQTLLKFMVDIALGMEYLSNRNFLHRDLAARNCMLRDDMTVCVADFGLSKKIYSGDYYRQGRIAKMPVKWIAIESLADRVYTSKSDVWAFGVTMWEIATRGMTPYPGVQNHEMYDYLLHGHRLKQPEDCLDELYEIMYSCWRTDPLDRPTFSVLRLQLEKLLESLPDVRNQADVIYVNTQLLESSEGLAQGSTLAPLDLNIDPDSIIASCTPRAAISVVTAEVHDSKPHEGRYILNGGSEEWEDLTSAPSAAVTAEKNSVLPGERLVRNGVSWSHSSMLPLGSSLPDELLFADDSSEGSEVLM

The target of assay [2] is Serine/threonine-protein kinase PLK1 (Homo sapiens, UniProt P53350).
Assay [3] has as its target MAP kinase-activated protein kinase 3 (Homo sapiens, UniProt Q16644).
In another assay the target is T2, UMP-CMP kinase (Homo sapiens, UniProt P30085).
T2 sequence (P30085 whole entry): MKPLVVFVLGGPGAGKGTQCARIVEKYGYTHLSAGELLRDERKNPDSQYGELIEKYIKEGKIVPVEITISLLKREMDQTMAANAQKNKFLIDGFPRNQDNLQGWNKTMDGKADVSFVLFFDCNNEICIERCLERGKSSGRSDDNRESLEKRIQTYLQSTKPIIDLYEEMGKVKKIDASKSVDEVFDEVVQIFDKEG

For assay [4], the target named is T3, Dual specificity mitogen-activated protein kinase kinase 4 (Homo sapiens, UniProt P45985).
T3 sequence (P45985 whole entry): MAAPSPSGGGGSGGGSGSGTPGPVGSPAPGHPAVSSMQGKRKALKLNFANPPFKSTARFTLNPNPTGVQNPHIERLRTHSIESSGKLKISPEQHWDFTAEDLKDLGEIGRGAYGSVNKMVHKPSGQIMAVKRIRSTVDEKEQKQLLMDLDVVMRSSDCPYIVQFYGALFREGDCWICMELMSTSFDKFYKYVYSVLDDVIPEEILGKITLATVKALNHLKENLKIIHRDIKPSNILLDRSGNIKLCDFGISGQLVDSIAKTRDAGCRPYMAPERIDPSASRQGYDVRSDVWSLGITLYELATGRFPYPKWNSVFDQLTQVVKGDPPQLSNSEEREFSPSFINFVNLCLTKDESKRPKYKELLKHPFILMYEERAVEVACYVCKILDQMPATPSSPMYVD

Assay [5] deals with T4, Protein kinase C zeta type (Homo sapiens, UniProt Q05513).
T4 sequence (Q05513 whole entry): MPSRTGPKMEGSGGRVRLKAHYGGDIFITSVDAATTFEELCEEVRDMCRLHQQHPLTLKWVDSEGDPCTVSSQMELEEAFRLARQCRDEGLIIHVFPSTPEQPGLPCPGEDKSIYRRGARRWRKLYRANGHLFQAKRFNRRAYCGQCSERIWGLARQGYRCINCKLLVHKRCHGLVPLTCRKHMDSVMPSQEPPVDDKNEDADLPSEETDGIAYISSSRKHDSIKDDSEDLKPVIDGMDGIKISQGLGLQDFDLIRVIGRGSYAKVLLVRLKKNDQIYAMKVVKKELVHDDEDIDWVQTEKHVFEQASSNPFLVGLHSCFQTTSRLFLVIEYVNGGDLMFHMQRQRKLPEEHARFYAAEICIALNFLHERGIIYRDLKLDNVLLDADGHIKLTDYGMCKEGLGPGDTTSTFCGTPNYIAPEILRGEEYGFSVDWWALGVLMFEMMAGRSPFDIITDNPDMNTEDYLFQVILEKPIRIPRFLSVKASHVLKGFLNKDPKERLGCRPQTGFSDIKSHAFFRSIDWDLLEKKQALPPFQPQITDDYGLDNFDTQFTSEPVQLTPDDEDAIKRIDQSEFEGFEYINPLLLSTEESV

In assay [6] the target is Serine/threonine-protein kinase Nek7 (Homo sapiens, UniProt Q8TDX7).

Calls of active or inactive are those of the source. On the calls: in the data inactive means no Kd found up to 30 µM.

Chain of Serine/threonine-protein kinase Nek7 (Q8TDX7 whole entry): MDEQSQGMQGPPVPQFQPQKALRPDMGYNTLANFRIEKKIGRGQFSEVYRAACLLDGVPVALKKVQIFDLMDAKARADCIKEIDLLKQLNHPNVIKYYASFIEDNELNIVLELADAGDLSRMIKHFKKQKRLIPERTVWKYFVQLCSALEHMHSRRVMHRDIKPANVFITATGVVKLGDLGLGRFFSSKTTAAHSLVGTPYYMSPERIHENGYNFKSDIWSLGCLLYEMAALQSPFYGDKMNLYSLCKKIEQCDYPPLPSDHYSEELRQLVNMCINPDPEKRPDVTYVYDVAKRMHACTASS
Chain of MAP kinase-activated protein kinase 3 (Q16644 whole entry): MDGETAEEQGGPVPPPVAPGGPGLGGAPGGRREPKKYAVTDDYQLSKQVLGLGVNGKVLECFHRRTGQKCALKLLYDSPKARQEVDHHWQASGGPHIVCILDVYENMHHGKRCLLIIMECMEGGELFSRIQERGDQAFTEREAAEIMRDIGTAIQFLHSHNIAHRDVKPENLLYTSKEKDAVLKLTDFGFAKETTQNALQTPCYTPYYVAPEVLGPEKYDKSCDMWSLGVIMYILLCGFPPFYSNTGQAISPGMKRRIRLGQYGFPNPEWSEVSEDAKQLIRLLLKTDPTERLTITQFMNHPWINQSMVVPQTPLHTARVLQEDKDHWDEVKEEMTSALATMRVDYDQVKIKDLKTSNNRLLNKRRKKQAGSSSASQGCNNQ
Chain of Serine/threonine-protein kinase PLK1 (P53350 whole entry): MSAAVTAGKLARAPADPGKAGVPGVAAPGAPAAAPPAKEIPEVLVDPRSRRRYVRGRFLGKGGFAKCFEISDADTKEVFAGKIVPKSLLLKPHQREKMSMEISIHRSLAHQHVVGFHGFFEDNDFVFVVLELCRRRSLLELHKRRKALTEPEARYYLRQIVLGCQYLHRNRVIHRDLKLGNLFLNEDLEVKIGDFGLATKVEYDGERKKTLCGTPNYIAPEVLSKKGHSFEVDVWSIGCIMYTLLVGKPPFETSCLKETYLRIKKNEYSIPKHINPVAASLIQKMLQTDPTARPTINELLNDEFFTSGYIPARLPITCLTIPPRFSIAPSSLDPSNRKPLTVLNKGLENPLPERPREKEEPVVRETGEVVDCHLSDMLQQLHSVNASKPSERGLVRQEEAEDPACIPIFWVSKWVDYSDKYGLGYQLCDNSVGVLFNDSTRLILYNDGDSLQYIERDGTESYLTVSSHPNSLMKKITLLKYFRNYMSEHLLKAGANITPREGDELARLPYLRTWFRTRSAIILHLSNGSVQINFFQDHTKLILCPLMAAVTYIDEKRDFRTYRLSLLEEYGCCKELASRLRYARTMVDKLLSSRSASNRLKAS

For `C=CC(=O)N1CCC[C@H](n2c(=O)n(-c3ccc(Oc4ccccc4)cc3)c3c(N)ncnc32)C1`, the Kd (in assay [1]; in assay [2]; in assay [3]; at UMP-CMP kinase; in assay [4]) was > 30 µM (inactive) throughout.

On to `Cc1nc2cc(-c3nn(C(C)C)c4ncnc(N)c34)ccc2o1`, for which the Kd in assay [1], in assay [5], in assay [2] and in assay [3] was > 30 µM (inactive) each time.

Turning to `Nc1ncnc2c1c(-c1cccc(OCc3ccccc3)c1)cn2[C@H]1C[C@@H](CN2CCC2)C1` [AEW-541], the Kd in assay [6], in assay [1], in assay [2], in assay [3] and in assay [4] was > 30 µM (inactive) each time.

For `Cc1csc(-c2nnc(Nc3ccc(Oc4ncccc4-c4ccnc(N)n4)cc3)c3ccccc23)c1` [AMG-900], the Kd (in assay [1]; in assay [3]; at UMP-CMP kinase; in assay [4]) was > 30 µM (inactive) throughout.

For `Cc1cc(Nc2ncc(Cl)c(Nc3ccccc3S(=O)(=O)C(C)C)n2)c(OC(C)C)cc1C1CCNCC1` [CERITINIB], the Kd in assay [6], in assay [1], in assay [5], in assay [2] and in assay [3] was > 30 µM (inactive) in each case.

`COc1c(OCCCN2CCOCC2)ccc2c1N=C(NC(=O)c1cnc(N)nc1)N1CCN=C21` [COPANLISIB]: the Kd in assay [1], in assay [2] and in assay [4] was > 30 µM (inactive) each time.

For `COCC(=O)NC/C=C/c1ccc2ncnc(Nc3ccc(Oc4ccc(C)nc4)c(C)c3)c2c1` [CP-724714], the Kd in assay [1], in assay [5], in assay [2] and in assay [3] was > 30 µM (inactive) in each case.

Turning to `O=C(Nc1cc(C(F)(F)F)cc(C(F)(F)F)c1)c1cc(Cl)ccc1O` [IMD-0354], the Kd in assay [6] and in assay [1] was > 30 µM (inactive) throughout.

As to `CNC(=O)c1nn(C)c2c1C(C)(C)Cc1cnc(Nc3ccc(N4CCN(C)CC4)cc3)nc1-2` [MILCICLIB], the Kd in assay [6], in assay [1], in assay [5] and in assay [4] was > 30 µM (inactive) each time.

`NC1(c2ccc(-c3nc4ccn5c(=O)[nH]nc5c4cc3-c3ccccc3)cc2)CCC1` [MK-2206]: the Kd (in assay [6]; in assay [1]; in assay [3]; at UMP-CMP kinase) was > 30 µM (inactive) throughout.

As for `FC(F)(F)c1ccc(/C=C/c2nc(COc3ccc(CCCCn4ccnn4)cc3)co2)cc1` [MUBRITINIB], the Kd in assay [1] and in assay [2] was > 30 µM (inactive) each time.

Regarding `COc1ncc(-c2ccc3nccc(-c4ccnnc4)c3c2)cc1NS(=O)(=O)c1ccc(F)cc1F` [OMIPALISIB], the Kd (in assay [6]; in assay [5]; in assay [2]; in assay [3]; on UMP-CMP kinase) was > 30 µM (inactive) throughout.

Regarding `CC(=O)NCC(=O)N1[C@@H]2CC[C@H]1c1ccc(Nc3ncc(C(F)(F)F)c(NC4CCC4)n3)cc12` [PF-03814735], the Kd in assay [1] and in assay [4] was > 30 µM (inactive) each time.

With `CNC(=O)c1cc(Oc2ccc(NC(=O)Nc3cc(C(C)(C)C)nn3-c3ccc4ncccc4c3)c(F)c2)ccn1` [REBASTINIB], the Kd in assay [6], in assay [1], in assay [5], in assay [2] and in assay [3] was > 30 µM (inactive) in each case.

For `CO[C@H]1C[C@@H]2CC[C@@H](C)[C@@](O)(O2)C(=O)C(=O)N2CCCC[C@H]2C(=O)O[C@H]([C@H](C)C[C@@H]2CC[C@@H](OP(C)(C)=O)[C@H](OC)C2)CC(=O)[C@H](C)/C=C(\C)[C@@H](O)[C@@H](OC)C(=O)[C@H](C)C[C@H](C)/C=C/C=C/C=C/1C` [RIDAFOROLIMUS], the Kd in assay [6], in assay [1], in assay [5] and in assay [4] was > 30 µM (inactive) in each case.

In the case of `O=c1[nH]ccc2cc(OC3CCNCC3)ccc12` [SAR-407899 FREE BASE], the Kd (in assay [6]; in assay [1]; in assay [5]; in assay [2]; at UMP-CMP kinase) was > 30 µM (inactive) in each case.

Turning to `CO[C@H]1C[C@@H]2CC[C@@H](C)[C@@](O)(O2)C(=O)C(=O)N2CCCC[C@H]2C(=O)O[C@H]([C@H](C)C[C@@H]2CC[C@@H](O)[C@H](OC)C2)CC(=O)[C@H](C)/C=C(\C)[C@@H](O)[C@@H](OC)C(=O)[C@H](C)C[C@H](C)/C=C/C=C/C=C/1C` [SIROLIMUS], the Kd (in assay [1]; in assay [5]; in assay [2]; on UMP-CMP kinase) was > 30 µM (inactive) each time.

As for `CCS(=O)(=O)c1cccc(-c2cc(C(=O)NC3CCN(C)CC3)c(C)c3[nH]c4ncc(C)cc4c23)c1` [TAK-901], the Kd in assay [1], in assay [5] and in assay [4] was > 30 µM (inactive) each time.

Take `COc1cc2c(Nc3ccc(Cl)c(Cl)c3F)ncnc2cc1OC[C@@H]1C[C@@H]2CN(C)C[C@@H]2C1` [TESEVATINIB]: the Kd is > 30 µM (inactive) in assay [6], > 30 µM (inactive) in assay [1], 0.002 µM in assay [3] and > 30 µM (inactive) in assay [4].

On to `C[C@@H](NC(=O)c1ncnc(N)c1Cl)c1ncc(C(=O)Nc2cc(C(F)(F)F)c(Cl)cn2)s1` [TOVORAFENIB], for which the Kd in assay [1] is > 30 µM (inactive); in assay [5] it was > 30 µM (inactive); in assay [4], 0.146 µM.

As for `Cc1cc(Nc2ncnc3ccc(NC4=NC(C)(C)CO4)cc23)ccc1Oc1ccn2ncnc2c1` [TUCATINIB], the Kd (in assay [6]; in assay [1]; in assay [5]; in assay [3]; at UMP-CMP kinase) was > 30 µM (inactive) in each case.

For the compound `C[C@@H](N)c1ccc(C(=O)Nc2ccnc3[nH]ccc23)cc1` [Y-39983], the Kd in assay [2], in assay [3] and in assay [4] was > 30 µM (inactive) throughout.
